ChEMBL document CHEMBL1139987 (Bioorg Med Chem Lett, 2007)

Experiments:
[1] = biological target: Insulin-like growth factor 1 receptor (Homo sapiens, UniProt P08069); experiment: Inhibition of IGF1R
MCF7 = experiment: Inhibition of IGF1 mediated cell growth in MCF7 cells; settings: Homo sapiens
[2] = biological target: T1, Polyunsaturated fatty acid lipoxygenase ALOX15 (Homo sapiens, UniProt P16050)
T1 sequence (P16050 whole entry): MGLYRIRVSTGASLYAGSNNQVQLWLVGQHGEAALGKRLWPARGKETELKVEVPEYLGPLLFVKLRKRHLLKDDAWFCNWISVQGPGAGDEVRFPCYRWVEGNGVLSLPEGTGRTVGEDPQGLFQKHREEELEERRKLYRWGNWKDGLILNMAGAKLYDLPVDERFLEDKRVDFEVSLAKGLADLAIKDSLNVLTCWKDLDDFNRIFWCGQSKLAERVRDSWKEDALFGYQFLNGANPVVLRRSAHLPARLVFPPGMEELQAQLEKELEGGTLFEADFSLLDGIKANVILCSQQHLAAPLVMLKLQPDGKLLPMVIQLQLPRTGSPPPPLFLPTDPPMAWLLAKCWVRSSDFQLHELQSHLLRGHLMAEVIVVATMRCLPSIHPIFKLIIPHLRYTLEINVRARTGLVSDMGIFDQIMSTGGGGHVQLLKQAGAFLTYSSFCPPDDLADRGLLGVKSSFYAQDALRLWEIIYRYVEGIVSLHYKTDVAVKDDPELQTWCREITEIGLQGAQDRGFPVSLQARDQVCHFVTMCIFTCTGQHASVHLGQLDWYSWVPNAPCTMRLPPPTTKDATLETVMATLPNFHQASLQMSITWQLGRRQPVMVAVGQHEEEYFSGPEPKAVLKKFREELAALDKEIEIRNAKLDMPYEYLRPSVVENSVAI

Chain of Insulin-like growth factor 1 receptor (P08069 31-736 limits assumed): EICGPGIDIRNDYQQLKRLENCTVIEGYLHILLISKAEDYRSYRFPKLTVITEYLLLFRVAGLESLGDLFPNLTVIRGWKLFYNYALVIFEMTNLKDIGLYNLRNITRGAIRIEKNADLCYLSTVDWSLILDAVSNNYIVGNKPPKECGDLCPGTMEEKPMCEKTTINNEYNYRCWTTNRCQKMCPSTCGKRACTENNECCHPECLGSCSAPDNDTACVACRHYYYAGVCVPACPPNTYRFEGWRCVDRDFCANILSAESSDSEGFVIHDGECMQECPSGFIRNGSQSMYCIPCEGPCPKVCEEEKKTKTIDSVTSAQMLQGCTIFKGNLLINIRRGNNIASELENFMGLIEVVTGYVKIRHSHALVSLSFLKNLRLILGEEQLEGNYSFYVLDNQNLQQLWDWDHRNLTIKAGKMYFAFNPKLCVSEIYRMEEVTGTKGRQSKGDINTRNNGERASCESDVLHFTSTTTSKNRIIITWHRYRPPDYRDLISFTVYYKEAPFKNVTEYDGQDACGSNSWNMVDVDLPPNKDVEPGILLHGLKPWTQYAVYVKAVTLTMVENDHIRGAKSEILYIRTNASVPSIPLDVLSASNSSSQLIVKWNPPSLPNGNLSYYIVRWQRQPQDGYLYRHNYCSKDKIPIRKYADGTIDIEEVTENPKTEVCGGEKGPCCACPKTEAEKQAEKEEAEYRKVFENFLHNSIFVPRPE
Chain of Insulin-like growth factor 1 receptor (P08069 741-1367 limits assumed): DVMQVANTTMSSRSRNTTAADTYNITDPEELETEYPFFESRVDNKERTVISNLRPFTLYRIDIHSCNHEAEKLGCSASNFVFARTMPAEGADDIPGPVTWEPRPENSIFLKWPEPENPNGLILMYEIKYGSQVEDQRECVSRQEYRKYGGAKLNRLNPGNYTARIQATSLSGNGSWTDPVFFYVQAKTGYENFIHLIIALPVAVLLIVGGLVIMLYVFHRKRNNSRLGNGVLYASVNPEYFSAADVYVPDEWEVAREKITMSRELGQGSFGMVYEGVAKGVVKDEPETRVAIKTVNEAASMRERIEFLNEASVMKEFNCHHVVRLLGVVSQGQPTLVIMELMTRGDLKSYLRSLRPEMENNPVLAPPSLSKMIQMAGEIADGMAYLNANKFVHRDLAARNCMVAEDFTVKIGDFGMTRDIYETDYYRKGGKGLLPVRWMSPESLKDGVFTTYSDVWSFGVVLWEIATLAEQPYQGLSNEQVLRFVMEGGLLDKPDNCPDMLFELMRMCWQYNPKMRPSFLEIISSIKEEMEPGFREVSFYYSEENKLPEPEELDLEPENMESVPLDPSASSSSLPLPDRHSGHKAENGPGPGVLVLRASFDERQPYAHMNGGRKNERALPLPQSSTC

SMILES | IC50 [1] | IC50 (MCF7) | IC50 [2]
Oc1ccc(CCCCc2ccc(Cl)c(Cl)c2)cc1O | 1 µM | 21.5 µM | 
COc1ccc(CCCCc2ccc(O)c(O)c2)cc1 |  | 15.7 µM | 
Cc1ccc(CCCCc2ccc(O)c(O)c2)cc1 | 0.8 µM | 15.1 µM | 
Oc1ccc(CCCCc2ccc(O)c(O)c2)cc1O | 0.6 µM | 25.4 µM | 3.9 µM
Oc1cc2c(cc1O)C(c1ccccc1)CCC2 (stereo not drawn) | 1 µM | 12.3 µM | 
Oc1ccc(CCCCc2ccc(O)c(O)c2)cc1 | 1 µM | 36.2 µM | 9.4 µM
Oc1ccc(CCCCc2ccc(Cl)cc2)cc1O | 0.8 µM | 13.4 µM | 
Oc1ccc(CCCCc2ccccc2)cc1O |  | 11.2 µM | 7.3 µM
CC(Cc1ccc(O)c(O)c1)C(C)Cc1ccc(O)c(O)c1 (stereo not drawn) [NORDIHYDROGUAIARETIC ACID] |  | 24.6 µM | 
